Data published in PubChem BioAssay (NCI).
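In this assay, cells in 96-well plates receive the compound at five concentrations for 48 hours. Endpoints are linearly interpolated between the surrounding concentrations. GI50 is the concentration that inhibits growth by half. Definition used: TGI = concentration required for complete inhibition of growth.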

Key:
Test in all cases: growth of human tumour cells (NCI), 48 h
[1] = test system: OVCAR-3 ovarian
[2] = test system: OVCAR-4 ovarian
[3] = test system: UO-31 renal
[4] = test system: NCI-H23 lung
[5] = test system: RXF 393 renal
[6] = test system: NCI-H460 lung
[7] = test system: SK-MEL-5 melanoma
[8] = test system: HCT-116 colon
[9] = test system: A549 NSCLC
[10] = test system: A498 renal
[11] = test system: UACC-62 melanoma
[12] = test system: OVCAR-5 ovarian
[13] = test system: MDA-MB-231 breast
[14] = test system: U251 CNS
[15] = test system: NCI-H226 lung
[16] = test system: LOX IMVI melanoma
[17] = test system: HOP-92 NSCLC
[18] = test system: COLO 205 colon
[19] = test system: SNB-75 CNS
[20] = test system: HS 578T breast
[21] = test system: HL-60(TB) leukemia
[22] = test system: HCT-15 colon
[23] = test system: UACC-257 melanoma
[24] = test system: SK-MEL-2 melanoma
[25] = test system: SN12C renal
[26] = test system: KM12 colon
[27] = test system: 786-0 renal
[28] = test system: RPMI-8226 leukemia
[29] = test system: OVCAR-8 ovarian
[30] = test system: IGROV1 ovarian
[31] = test system: T-47D breast
[32] = test system: TK-10 renal
[33] = test system: EKVX NSCLC
[34] = test system: NCI/ADR-RES ovarian
[35] = test system: CAKI-1 renal
[36] = test system: HOP-62 NSCLC
[37] = test system: MOLT-4 leukemia
[38] = test system: BT-549 breast
[39] = test system: ACHN renal
[40] = test system: HT29 colon
[41] = test system: SR leukemia
[42] = test system: K-562 leukemia
[43] = test system: MDA-MB-435
[44] = test system: SF-268 CNS
[45] = test system: SF-539 CNS
[46] = test system: MCF7 breast
[47] = test system: CCRF-CEM leukemia
[48] = test system: HCC-2998 colon
[49] = test system: SNB-19 CNS
[50] = test system: MALME-3M melanoma
[51] = test system: SK-OV-3 ovarian
[52] = test system: M14 melanoma
[53] = test system: DU-145 prostate
[54] = test system: PC-3 prostate
[55] = test system: SK-MEL-28 melanoma
[56] = test system: NCI-H522 lung
[57] = test system: SF-295 CNS
[58] = test system: SW-620 colon

COc1ccc(C2C(C#N)=C(N)Oc3c2sc2c(C)cccc32)cc1 (centres undefined)
GI50 [1]: 0.414 µM | TGI [1]: 12.8 µM | GI50 [2]: 2.24 µM | TGI [2]: 22.5 µM | GI50 [3]: 0.34 µM | TGI [3]: 13.5 µM | GI50 [4]: 0.474 µM | TGI [4]: 12.8 µM | GI50 [5]: 0.234 µM | TGI [5]: 0.628 µM | GI50 [6]: 0.384 µM | TGI [6]: 10.6 µM | GI50 [7]: 0.427 µM | TGI [7]: 13.2 µM | GI50 [8]: 0.362 µM | TGI [8]: 6.96 µM | GI50 [9]: 0.724 µM | TGI [9]: 21.6 µM | GI50 [10]: 0.199 µM | TGI [10]: 0.772 µM | GI50 [11]: 0.375 µM | TGI [11]: 11.9 µM | GI50 [12]: 0.636 µM | TGI [12]: 14.2 µM | GI50 [13]: 1.22 µM | TGI [13]: 10.6 µM | GI50 [14]: 0.489 µM | TGI [14]: 16 µM | GI50 [15]: 0.59 µM | TGI [15]: 15.8 µM | GI50 [16]: 0.592 µM | TGI [16]: 10.8 µM | GI50 [17]: 1.13 µM | TGI [17]: 11.1 µM | GI50 [18]: 0.933 µM | TGI [18]: 8.68 µM | GI50 [19]: 0.221 µM | TGI [19]: 0.709 µM | GI50 [20]: 0.3 µM | TGI [20]: 2.28 µM | GI50 [21]: 0.23 µM | TGI [21]: 1.06 µM | GI50 [22]: 0.408 µM | TGI [22]: 7.32 µM | GI50 [23]: 14.3 µM | TGI [23]: 42.1 µM | GI50 [24]: 3.33 µM | TGI [24]: 26.5 µM | GI50 [25]: 0.578 µM | TGI [25]: 11.3 µM | GI50 [26]: 0.46 µM | TGI [26]: 14.5 µM | GI50 [27]: 0.621 µM | TGI [27]: 14.6 µM | GI50 [28]: 0.384 µM | TGI [28]: 5.53 µM | GI50 [29]: 0.547 µM | TGI [29]: 17.4 µM | GI50 [30]: 0.449 µM | TGI [30]: 14.5 µM | GI50 [31]: 0.552 µM | TGI [31]: 43.7 µM | GI50 [32]: 9.49 µM | TGI [32]: 34.2 µM | GI50 [33]: 0.677 µM | TGI [33]: 21.3 µM | GI50 [34]: 0.332 µM | TGI [34]: 5.75 µM | GI50 [35]: 0.381 µM | TGI [35]: 16.7 µM | GI50 [36]: 0.544 µM | TGI [36]: 20.8 µM | GI50 [37]: 0.524 µM | TGI [37]: 9.43 µM | GI50 [38]: 0.956 µM | TGI [38]: 7.83 µM | GI50 [39]: 0.757 µM | TGI [39]: 14.7 µM | GI50 [40]: 0.816 µM | TGI [40]: 12.7 µM | GI50 [41]: 0.215 µM | TGI [41]: 15 µM | GI50 [42]: 0.119 µM | TGI [42]: > 100 µM | GI50 [43]: 0.188 µM | TGI [43]: 0.441 µM | GI50 [44]: 1.2 µM | TGI [44]: 21.6 µM | GI50 [45]: 0.297 µM | TGI [45]: 1.24 µM | GI50 [46]: 0.322 µM | TGI [46]: 12.2 µM | GI50 [47]: 0.341 µM | TGI [47]: > 64.8 µM | GI50 [48]: 1.03 µM | TGI [48]: 7.39 µM | GI50 [49]: 0.52 µM | TGI [49]: 15.2 µM | GI50 [50]: 0.431 µM | TGI [50]: 21 µM | GI50 [51]: 0.613 µM | TGI [51]: 41.7 µM | GI50 [52]: 0.304 µM | TGI [52]: 13.4 µM | GI50 [53]: 0.596 µM | TGI [53]: 18.6 µM | GI50 [54]: 0.346 µM | TGI [54]: 13 µM | GI50 [55]: 3.83 µM | TGI [55]: 21.7 µM | GI50 [56]: 0.369 µM | TGI [56]: 6.01 µM | GI50 [57]: 0.293 µM | TGI [57]: 2.4 µM | GI50 [58]: 0.441 µM | TGI [58]: 16.2 µM

COCn1cnc2c(=O)n(-c3ccc(C)cc3)c(=S)n(-c3ccc(C)cc3)c21
TGI [1]: > 100 µM | TGI [2]: > 100 µM | TGI [3]: > 100 µM | TGI [4]: > 100 µM | TGI [5]: > 100 µM | TGI [6]: > 100 µM | TGI [7]: > 100 µM | TGI [8]: > 100 µM | TGI [9]: > 100 µM | TGI [10]: > 100 µM | TGI [11]: > 100 µM | TGI [12]: > 100 µM | TGI [13]: > 100 µM | TGI [14]: > 100 µM | TGI [15]: > 100 µM | TGI [16]: > 100 µM | TGI [17]: > 100 µM | TGI [18]: > 100 µM | TGI [19]: > 100 µM | TGI [20]: > 100 µM | TGI [21]: > 100 µM | TGI [22]: > 100 µM | TGI [23]: > 100 µM | TGI [24]: > 100 µM | TGI [25]: > 100 µM | TGI [26]: > 100 µM | TGI [27]: > 100 µM | TGI [28]: > 100 µM | TGI [29]: > 100 µM | TGI [30]: > 100 µM | TGI [31]: > 100 µM | TGI [32]: > 100 µM | TGI [33]: > 100 µM | TGI [34]: > 100 µM | TGI [35]: > 100 µM | TGI [36]: > 100 µM | TGI [37]: > 100 µM | TGI [38]: > 100 µM | TGI [39]: > 100 µM | TGI [40]: > 100 µM | TGI [41]: > 100 µM | TGI [42]: > 100 µM | TGI [43]: > 100 µM | TGI [44]: > 100 µM | TGI [45]: > 100 µM | TGI [46]: > 100 µM | TGI [47]: > 100 µM | TGI [48]: > 100 µM | TGI [49]: > 100 µM | TGI [50]: > 100 µM | TGI [51]: > 100 µM | TGI [52]: > 100 µM | TGI [53]: > 100 µM | TGI [54]: > 100 µM | TGI [55]: > 100 µM | TGI [56]: > 100 µM | TGI [57]: > 100 µM | TGI [58]: > 100 µM
